From ChEMBL document CHEMBL1154198, “Chemical genetics of Plasmodium falciparum” (Nature, 2010)
pEC50: −log10 of the molar value.

Assays:
[1] = system: Plasmodium falciparum; assay: ST_JUDE: Plasmodium falciparum 3D7 EC50 (uM) as measured by SYBR green dye; type: functional, organism-based
[2] = system: Plasmodium falciparum; assay: ST_JUDE: Plasmodium falciparum K1 EC50 (uM) as measured by SYBR green dye; type: functional, organism-based

Row | SMILES | pEC50 [1] | pEC50 [2]
1 | COc1ccc2sc(N(Cc3cccnc3)C(=O)c3ccc(Cl)cc3)nc2c1 | < 4.82 | < 4.82
2 | CCCOc1ccc(-c2nonc2NC(=O)c2cccc(OC)c2)cc1OCCC | 5.93 | 5.92
3 | O=C(Nc1cc(Cl)cc(Cl)c1)Nc1ccc(Cl)c(Cl)c1 | 6.11 | 6.30
4 | COc1cc(NC(=O)COc2cc(C)c(Cl)c(C)c2)cc(OC)c1 | < 4.82 | < 4.82
5 | CCC1CCCCN1CC(O)COCCC12CC3CC(CC(C3)C1)C2 (stereo not given) | 5.14 | 5.57
6 | COC(=O)C1=C(C(=O)OC)C2(OC1c1cccc(F)c1)C(=O)c1ccccc1C2=O (stereo not given) | 5.40 | < 4.82
7 | CC(C)CC(=O)NC(c1ccc(Cl)cc1)c1c(O)ccc2ccccc12 (stereo not given) | 5.38 | 5.32
8 | CCCN1CCN(CCCNC(=O)c2ccc3c(c2)sc2nc(-c4ccc(OC)cc4)cn23)CC1 | 6.08 | < 4.82
9 | O=C(Nc1ccc(Cl)cc1)Nc1cc(OCC(F)(F)F)cc(OCC(F)(F)F)c1 | 5.87 | 6.33
10 | O=C(C1CCCO1)N1N=C(c2c(O)nc3ccc(Cl)cc3c2-c2ccccc2)CC1c1ccco1 (stereo not given) | < 4.82 | < 4.82
11 | COc1ccc(OC)c(C2C(C(=O)OC(C)C)=C(C)N=c3s/c(=C\c4ccc(O)cc4)c(=O)n32)c1 (stereo not given) | < 4.82 | 5.86
12 | CC(C)Cn1c2c(c(=N)c3c1CCC3)CCCC2 | 5.65 | 5.42
13 | COc1cccc(C2Nc3ccc(C(C)=O)cc3C3C=CCC32)c1OC (stereo not given) | 5.47 | 5.09
14 | Cc1cccc(NS(=O)(=O)c2cc3c4c(c2)CCN4C(=O)CC3)c1 | < 4.82 | < 4.82
15 | Cc1cc(C)c(C)c(OCCCCCCN2CCCC2)c1 | < 4.82 | < 4.82
16 | CCN(CC)c1cc(C)c2cc(NC(=O)c3ccc(Cl)c([N+](=O)[O-])c3)ccc2n1 | < 4.82 | < 4.82
17 | CC[n+]1c(C=C2C=CN(C)C=C2)ccc2cc(C)ccc21 | 5.55 | 6.33
18 | CC(C)OCc1cc(CN2CCN(c3cccc(Cl)c3)CC2)c(O)c2ncccc12 | 6.03 | 6.09
19 | O=[N+]([O-])c1cccc(NC(=S)Nc2ccc(OC(F)F)c(Cl)c2)c1 | 5.18 | 5.35
20 | CNC(=O)C(=O)N1CCC2(CC1)OCCN2S(=O)(=O)c1ccc(C)cc1 | < 4.82 | < 4.82
21 | Cn1c(-c2ccccc2[N+](=O)[O-])[n+](C)c2ccccc21 | 5.13 | < 4.82
22 | COc1ccc(Cl)cc1NC(=O)C1c2ccccc2C(=O)N(CC(C)C)C1c1cccs1 (stereo not given) | 6.43 | 6.41
23 | COc1ccc(C2C(C(=O)Nc3ccc(C)cc3Br)c3ccccc3C(=O)N2C)cc1 (stereo not given) | 5.46 | 5.42
24 | COc1cc2c(cc1OC)C(C(=O)Nc1ccc(C(C)C)cc1)C(c1cccs1)N(C)C2=O (stereo not given) | < 4.82 | 5.46

Row | SMILES | pEC50 [1] | pEC50 [2]
25 | COc1ccc(C)cc1NC(=S)N1CCN(c2ccc([N+](=O)[O-])cc2)CC1 | 5.87 | 5.72
26 | CCc1cccc2c(C#N)cn(Cc3ccc(Br)cc3)c12 | 5.44 | 5.40
27 | CCS(=O)(=O)Nc1ccc(C2=NN(C(=O)c3ccco3)C(c3ccc(F)cc3)C2)cc1 (stereo not given) | < 4.82 | 5.21
28 | Oc1ccc(Br)cc1CN1CCN(Cc2cccc(Cl)c2)CC1 | 5.75 | 6.47
29 | CN(C)CCNC(=O)c1[nH]c2ccccc2c1Sc1ccc(Cl)cc1 | 5.34 | 5.46
30 | Cc1ccc2[nH]c(-c3cccc(-c4nc5cc(C)ccc5[nH]4)n3)nc2c1 | 5.49 | 5.12
31 | CCc1ccc(S(=O)(=O)Nc2ccc(Nc3nc(C)cc(N4CCCC4)n3)cc2)cc1 | 5.85 | < 4.82
32 | CCCCN(C)C(=O)C1c2ccccc2C(=O)N(CC(C)C)C1c1cccs1 (stereo not given) | 5.82 | 5.76
33 | C=CCOc1ccc(C(=O)Nc2nonc2-c2ccc(OC)c(OC)c2)cc1 | 6.23 | 6.16
34 | CCOC(=O)CCc1c(C)c2cc3c(c(C)c2oc1=O)OCN(Cc1ccccc1OC)C3 | 5.52 | 5.91
35 | O=[N+]([O-])c1ccc(O)c(/N=C/C=C(\O)c2ccc(Cl)c(Cl)c2)c1 | < 4.82 | 5.78
36 | CCCc1cc(O)nc(-n2nc(C)cc2NC(=O)c2ccc(Cl)cc2)n1 | < 4.82 | < 4.82
37 | O=C(CSc1nccn1Cc1ccccc1Cl)Nc1cc(C(F)(F)F)ccc1Cl | < 4.82 | 5.86
38 | CCN(CC)C(=O)CSc1nc2cc(OC)c(OC)cc2c2nc(-c3ccccc3)nn12 | < 4.82 | 6.48
39 | CCCCCCCn1c(=N)n(CC(O)COc2ccccc2)c2ccccc21 (stereo not given) | 5.80 | 5.85
40 | COc1ccc(C(O)(CCC(C)C)C(CN2CCOCC2)c2ccccc2)cc1 (stereo not given) | 5.44 | 5.49
41 | O=C(Nc1c2c(nn1-c1ccc([N+](=O)[O-])cc1)CSC2)c1ccc(C(=O)c2ccccc2)cc1 | < 4.82 | 5.39
42 | CCCCN(CCCC)CC1OCc2ccccc2CO1 | < 4.82 | < 4.82
43 | c1cncc(CN2CCN(Cc3cccc4ccccc34)CC2)c1 | < 4.82 | < 4.82
44 | COc1ccc2nc(N(Cc3cccnc3)C(=O)c3cccc(Cl)c3)sc2c1 | < 4.82 | < 4.82
45 | CC/C(=C\c1sc2ccc(OC)cc2[n+]1CC)SC | 5.88 | < 4.82
46 | Cc1cccc(-n2ccnc2SCC(=O)Nc2cc(C(F)(F)F)ccc2Cl)c1 | < 4.82 | < 4.82
47 | CC(C)CN1CCN(Cc2cc(Cl)ccc2O)CC1CCO (stereo not given) | < 4.82 | 5.32
48 | Cc1ccc(C(C)(C)C)c(OCCCCn2ccnc2)c1 | 5.18 | 5.25

Row | SMILES | pEC50 [1] | pEC50 [2]
49 | Oc1c(C(Nc2ccccn2)c2cccc(Cl)c2)cc(Cl)c2cccnc12 (stereo not given) | 5.12 | 5.33
50 | Cc1ccc(O)c(-n2cc3c(c2-c2cccc([N+](=O)[O-])c2)c(=O)n(C)c(=O)n3C)c1 | 5.31 | 5.32
51 | COc1ccc(OC)c2sc(NNC(=O)c3ccc(S(=O)(=O)N(C)C)cc3)nc12 | 5.17 | 5.18
52 | CCCC(=O)N1CCN(c2ccc(NC(=O)c3cccc(OCC)c3)cc2Cl)CC1 | < 4.82 | < 4.82
53 | CCCC(=O)NC(c1ccc(Cl)cc1Cl)c1ccc2cccnc2c1O (stereo not given) | 5.65 | 5.45
54 | CCCCNC(=O)CSCc1cnn(-c2ccccc2)c1-n1cccc1 | 6.30 | 5.39
55 | N#Cc1ccc(Cn2c(=O)n(CCCC(=O)NCc3ccccc3)c(=O)c3sccc32)cc1 | < 4.82 | < 4.82
56 | O=C(CC1N=C2c3ccccc3N=C(SCc3ccc(F)cc3)N2C1=O)NCc1ccco1 (stereo not given) | 5.09 | 5.24
57 | CC(C)C(=O)N1CCOc2c(cc(-c3csc4ccccc34)cc2OCCc2ccccn2)C1 | < 4.82 | 5.35
58 | CCN1/C(=C/c2sc3ccc(C(=O)OC)cc3[n+]2CC)C=Cc2cc(OC)ccc21 | 7.18 | 6.81
59 | CC(=O)c1c(C(C)=O)c(C)n(Cc2ccc(Cl)cc2)c1C | < 4.82 | 5.18
60 | COc1ccc(/C=C(\C#N)c2nn(CCO)c(N)c2C#N)cc1 | < 4.82 | < 4.82
61 | COc1ccccc1/C=C/CN1CCC2(CCC(CNC(=O)C3CCOCC3)O2)CC1 (stereo not given) | < 4.82 | < 4.82
62 | CCN(CC)C(=O)c1sc(NC(=O)CCc2ccccc2)c(C(=O)OC(C)C)c1C | < 4.82 | < 4.82
63 | COc1ccc2c(c1)C=C/C(=C\c1sc3ccccc3[n+]1C)N2C | 6.79 | 6.84
64 | CCCN1CCN(CCCNC(=S)Nc2ccc3nc(N4CCN(C)CC4)cc(C)c3c2)CC1 | 5.27 | 5.16
65 | Oc1ccc(Br)cc1CN1CCN(Cc2ccc(Cl)cc2)CC1 | 5.83 | 6.67
66 | CN(C(=O)c1cc2c(s1)-c1ccccc1S(=O)(=O)C2)c1cccc(Cl)c1 | 6.15 | 5.98
67 | CCCCOC(=O)c1c(N)n(-c2ccccc2OC)c2nc3ccccc3nc12 | 5.42 | < 4.82
68 | CCc1ccc(CNCC(O)c2ccccc2)cc1 (stereo not given) | 5.66 | 5.86
69 | COCc1cc(CN2CCN(c3cccc(C(F)(F)F)c3)CC2)c(O)c2ncccc12 | 5.74 | 5.65
70 | O=C1C(Nc2ccc(I)cc2)=C(N2CCCCC2)C(=O)c2ccccc21 | 6.82 | 6.40
